pKi: −log10 of the molar value.
Biological target: T1, Amine oxidase [flavin-containing] A (Homo sapiens, UniProt P21397)
T1 sequence (P21397 whole entry): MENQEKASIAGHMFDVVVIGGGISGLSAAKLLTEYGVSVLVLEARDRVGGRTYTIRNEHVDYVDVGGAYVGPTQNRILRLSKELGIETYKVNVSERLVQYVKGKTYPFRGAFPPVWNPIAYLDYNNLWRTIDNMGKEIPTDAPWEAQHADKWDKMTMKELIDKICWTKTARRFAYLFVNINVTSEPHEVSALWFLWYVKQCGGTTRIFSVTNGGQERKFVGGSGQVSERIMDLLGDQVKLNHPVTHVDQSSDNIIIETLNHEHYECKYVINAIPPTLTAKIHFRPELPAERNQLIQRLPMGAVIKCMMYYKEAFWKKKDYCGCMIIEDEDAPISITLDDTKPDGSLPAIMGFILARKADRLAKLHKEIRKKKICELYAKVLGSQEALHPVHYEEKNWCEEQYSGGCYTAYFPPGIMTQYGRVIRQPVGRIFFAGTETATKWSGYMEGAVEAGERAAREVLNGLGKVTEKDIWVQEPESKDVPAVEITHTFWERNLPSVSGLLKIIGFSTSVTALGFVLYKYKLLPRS
Experiment: Compound was tested for the inhibition of monoamine oxidase A (MAO A) from human liver

Structure (SMILES): C[C@@H]1NC(=O)[C@H](NC(=O)[C@@H](N)Cc2ccc(O)cc2)C(C)(C)SSC(C)(C)[C@@H](C(O)O)NC(=O)[C@H](Cc2ccccc2)NC1=O
- pKi: 5.70
